According to PubChem BioAssay AID2060885 (Molecular Pharmacology Branch, DTP, NCI, 2025):
“And” between values parts separate entries of the source, which are not always exact repeats. Identical values can stand only once.

Tested on: NCI-H23 complex spheroids with HUVEC/MSC, viability
Experiment: Anticancer human tumor NCI-H23 cell line growth inhibition [RAS];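 further: spheroids exposed to compound for 7 days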;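 on viability, T/C: 100% = DMSO vehicle control viability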
Settings: for viability, T/C: stronger effect = lower value
Method in brief: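 Tumour cells grown as complex spheroids with HUVEC endothelial cells and mesenchymal stem cells, treated with RAS pathway inhibitor combinations. Each agent spans half-log steps from near clinical Cmax, or 10 microM where Cmax is unknown.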

CC1(C)CCC(Nc2ncc(C(F)(F)F)c(-c3c[nH]c4c(P(C)(C)=O)c(C#N)ccc34)n2)CN1 (stereo not given) + C=CC(=O)N1CCN(c2nc(OCC3CCCN3C)nc3c(F)c(-c4nc(N)cc(C)c4C(F)(F)F)c(Cl)cc23)C(C)C1
IC50 (curve of first compound, second compound 0.00316 µM): 1.11 nM
IC50 (curve of first compound, second compound 0.01 µM): < 0.949 nM
IC50 (curve of first compound, second compound 0.0316 µM): < 0.949 nM
IC50 (curve of first compound, second compound 0.1 µM): < 0.949 nM
IC50 (curve of first compound, second compound 0.316 µM): < 0.949 nM
IC50 (curve of first compound, second compound 1 µM): < 0.949 nM
viability, T/C (second compound 0.00316 µM, first compound 0.000949 µM): 50.9%
viability, T/C (second compound 0.00316 µM, first compound 0.003 µM): 41.2%
viability, T/C (second compound 0.00316 µM, first compound 0.00949 µM): 37%
viability, T/C (second compound 0.00316 µM, first compound 0.03 µM): 25.2%
viability, T/C (second compound 0.00316 µM, first compound 0.0949 µM): 26.9%
viability, T/C (second compound 0.00316 µM, first compound 0.3 µM): 27.6%
viability, T/C (second compound 0.01 µM, first compound 0.000949 µM): 36.5%
viability, T/C (second compound 0.01 µM, first compound 0.003 µM): 38.3%
viability, T/C (second compound 0.01 µM, first compound 0.00949 µM): 24.9%
viability, T/C (second compound 0.01 µM, first compound 0.03 µM): 24%
viability, T/C (second compound 0.01 µM, first compound 0.0949 µM): 22.5%
viability, T/C (second compound 0.01 µM, first compound 0.3 µM): 20%
viability, T/C (second compound 0.0316 µM, first compound 0.000949 µM): 33.6%
viability, T/C (second compound 0.0316 µM, first compound 0.003 µM): 27.2%
viability, T/C (second compound 0.0316 µM, first compound 0.00949 µM): 23.2%
viability, T/C (second compound 0.0316 µM, first compound 0.03 µM): 21%
viability, T/C (second compound 0.0316 µM, first compound 0.0949 µM): 21.2%
viability, T/C (second compound 0.0316 µM, first compound 0.3 µM): 18.2%
viability, T/C (second compound 0.1 µM, first compound 0.000949 µM): 29.8%
viability, T/C (second compound 0.1 µM, first compound 0.003 µM): 28.9%
viability, T/C (second compound 0.1 µM, first compound 0.00949 µM): 23.1%
viability, T/C (second compound 0.1 µM, first compound 0.03 µM): 21.3%
viability, T/C (second compound 0.1 µM, first compound 0.0949 µM): 19.2%
viability, T/C (second compound 0.1 µM, first compound 0.3 µM): 19.4%
viability, T/C (second compound 0.316 µM, first compound 0.000949 µM): 30.1%
viability, T/C (second compound 0.316 µM, first compound 0.003 µM): 30.4%
viability, T/C (second compound 0.316 µM, first compound 0.00949 µM): 24.1%
viability, T/C (second compound 0.316 µM, first compound 0.03 µM): 20.7%
viability, T/C (second compound 0.316 µM, first compound 0.0949 µM): 20.6%
viability, T/C (second compound 0.316 µM, first compound 0.3 µM): 19.5%
viability, T/C (second compound 1 µM, first compound 0.000949 µM): 29.3%
viability, T/C (second compound 1 µM, first compound 0.003 µM): 28.7%
viability, T/C (second compound 1 µM, first compound 0.00949 µM): 27.5%
viability, T/C (second compound 1 µM, first compound 0.03 µM): 22.4%
viability, T/C (second compound 1 µM, first compound 0.0949 µM): 23.6%
viability, T/C (second compound 1 µM, first compound 0.3 µM): 20.5%

C[C@@H](NC(=O)c1ncnc(N)c1Cl)c1ncc(C(=O)Nc2cc(C(F)(F)F)c(Cl)cn2)s1
viability, T/C (compound 0.0316 µM): 107% [middle of 4 runs]
viability, T/C (compound 0.1 µM): 106% and 109% (2×) and 116%
viability, T/C (compound 0.316 µM): 108% [middle of 4 runs]
viability, T/C (compound 1 µM): 101% (2×) and 99.7% and 106%
viability, T/C (compound 3.16 µM): 90.6% [middle of 4 runs]
IC50 (curve of compound): > 10000 nM

CC1(O)CCCC1n1c(=O)c(C(F)F)cc2cnc(NC3CCN(S(C)(=O)=O)CC3)nc21 (stereo not given) + CCn1c(-c2cc(N3CCN(C)CC3)cnc2C(C)OC)c2c3cc(ccc31)-c1csc(n1)CC(NC(=O)C1CC1C)C(=O)N1CCCC(N1)C(=O)OCC(C)(C)C2
IC50 (curve of first compound, second compound 0.000949 µM): < 31.6 nM
IC50 (curve of first compound, second compound 0.003 µM): < 31.6 nM
IC50 (curve of first compound, second compound 0.00949 µM): < 31.6 nM
IC50 (curve of first compound, second compound 0.03 µM): < 31.6 nM
IC50 (curve of first compound, second compound 0.0949 µM): < 31.6 nM
IC50 (curve of first compound, second compound 0.3 µM): < 31.6 nM
viability, T/C (second compound 0.000949 µM, first compound 0.0316 µM): 33.9%
viability, T/C (second compound 0.000949 µM, first compound 0.1 µM): 26.3%
viability, T/C (second compound 0.000949 µM, first compound 0.316 µM): 17.7%
viability, T/C (second compound 0.000949 µM, first compound 1 µM): 25.8%
viability, T/C (second compound 0.000949 µM, first compound 3.16 µM): 25.5%
viability, T/C (second compound 0.000949 µM, first compound 10 µM): 2.68%
viability, T/C (second compound 0.003 µM, first compound 0.0316 µM): 31.6%
viability, T/C (second compound 0.003 µM, first compound 0.1 µM): 18.7%
viability, T/C (second compound 0.003 µM, first compound 0.316 µM): 15.9%
viability, T/C (second compound 0.003 µM, first compound 1 µM): 19.1%
viability, T/C (second compound 0.003 µM, first compound 3.16 µM): 24%
viability, T/C (second compound 0.003 µM, first compound 10 µM): 1.43%
viability, T/C (second compound 0.00949 µM, first compound 0.0316 µM): 32%
viability, T/C (second compound 0.00949 µM, first compound 0.1 µM): 15.7%
viability, T/C (second compound 0.00949 µM, first compound 0.316 µM): 13.9%
viability, T/C (second compound 0.00949 µM, first compound 1 µM): 17.6%
viability, T/C (second compound 0.00949 µM, first compound 3.16 µM): 17.9%
viability, T/C (second compound 0.00949 µM, first compound 10 µM): 1.78%
viability, T/C (second compound 0.03 µM, first compound 0.0316 µM): 20.8%
viability, T/C (second compound 0.03 µM, first compound 0.1 µM): 18%
viability, T/C (second compound 0.03 µM, first compound 0.316 µM): 15%
viability, T/C (second compound 0.03 µM, first compound 1 µM): 17.1%
viability, T/C (second compound 0.03 µM, first compound 3.16 µM): 14.5%
viability, T/C (second compound 0.03 µM, first compound 10 µM): 2.47%
viability, T/C (second compound 0.0949 µM, first compound 0.0316 µM): 17.3%
viability, T/C (second compound 0.0949 µM, first compound 0.1 µM): 15.4%
viability, T/C (second compound 0.0949 µM, first compound 0.316 µM): 13.4%
viability, T/C (second compound 0.0949 µM, first compound 1 µM): 14.1%
viability, T/C (second compound 0.0949 µM, first compound 3.16 µM): 12.1%
viability, T/C (second compound 0.0949 µM, first compound 10 µM): 2.66%
viability, T/C (second compound 0.3 µM, first compound 0.0316 µM): 18.7%
viability, T/C (second compound 0.3 µM, first compound 0.1 µM): 14.8%
viability, T/C (second compound 0.3 µM, first compound 0.316 µM): 15.1%
viability, T/C (second compound 0.3 µM, first compound 1 µM): 12.8%
viability, T/C (second compound 0.3 µM, first compound 3.16 µM): 11.8%
viability, T/C (second compound 0.3 µM, first compound 10 µM): 2.94%
